The values that follow come from ChEMBL document CHEMBL4359836, “Synthesis and Biological Assessment of Pyrrolobenzoxazine Scaffold as a Potent Antioxidant” (J Med Chem, 2019).

Assay [1] can be described thus: Antioxidant activity in pH 7.4 phosphate buffer assessed as H2O2 scavenging activity by measuring H2O2 decomposition at 1.34 to 10.72 uM by spectrophotometric analysis. In kind it is functional.
Assay [2] is described as follows: Antioxidant activity in pH 7.4 potassium phosphate buffer assessed as CuCl2/ascorbic acid induced hydroxyl radical scavenging activity by measuring deoxyribose degradation product formation after 20 mins by thiobarbituric acid based absorbance analysis. In kind it is functional.
Assay [3] can be described thus: Pro-oxidant activity in pH 7.4 potassium phosphate buffer assessed as reduction in CuCl2/ascorbic acid induced hydroxyl radical scavenging activity at > 66 uM in presence of deoxyribose by measuring deoxyribose degradation product formation after 20 mins by thiobarbituric acid based absorbance analysis.
Assay [4] can be described thus: Antioxidant activity in pH 10 Tris-HCl buffer assessed as superoxide anion radical scavenging activity by measuring rate of epinephrine auto-oxidation by spectrophotometric analysis. In kind it is functional.
A short description of assay [5]: Antioxidant activity in pH 7.4 phosphate buffer assessed as DPPH radical scavenging activity at 4 to 100 uM after 30 mins by spectrophotometric analysis (reference value: 0.811 +/- 0.02%). The assay is classed as functional. In general terms: Loss of DPPH colour is used to gauge radical scavenging.
Assay [6] can be described thus: Reducing power of the compound assessed as reducing Fe3+ power at 80 uM using K3Fe(CN)6 in pH 6.6 phosphate buffer after 20 mins by spectrophotometric analysis.
Assay [7] can be described thus: Antioxidant activity in pH 7.4 potassium phosphate buffer assessed as CuCl2/ascorbic acid induced hydroxyl radical scavenging activity by measuring trolox equivalent antioxidant capacity by measuring IC50 Trolox/IC50 test compound ratio in presence of deoxyribose by thiobarbituric acid based absorbance analysis. In kind it is functional.
Assay [8] in a line: Antioxidant activity in pH 7.4 potassium phosphate buffer assessed as CuCl2/ascorbic acid induced hydroxyl radical scavenging activity at 66 uM in presence of deoxyribose after 20 mins by thiobarbituric acid based absorbance analysis (reference value: 0.617 +/- 0.02%). In kind it is functional.
Assay [9] in a line: Antioxidant activity in pH 10 Tris-HCl buffer assessed as superoxide anion radical scavenging activity by measuring rate of epinephrine auto-oxidation at 10.72 uM by spectrophotometric analysis (reference value: 0.0186 +/- 0.004%). In kind it is functional.
Assay [10] in a line: Pro-oxidant activity in pH 10 Tris-HCl buffer assessed as reduction in superoxide anion radical scavenging activity by measuring rate of epinephrine auto-oxidation at 10.72 uM by spectrophotometric analysis.
Assay [11] in a line: Antioxidant activity in pH 10 Tris-HCl buffer assessed as superoxide anion radical scavenging activity by measuring rate of epinephrine auto-oxidation at 8.04 uM by spectrophotometric analysis (reference value: 0.0186 +/- 0.004%). The assay is classed as functional.
Assay [12] is described as follows: Antioxidant activity in pH 7.4 phosphate buffer assessed as DPPH radical scavenging activity after 30 mins by spectrophotometric analysis. In kind it is functional.

The term IC50 denotes the concentration needed to halve the response being measured.

The structures appear in SMILES notation. The source made the active and inactive calls. No cut-off for these calls is given here. Some results are limits rather than exact numbers.

For the molecule `CCOC(=O)c1c(-c2ccc(C)cc2)cn2c1c(=O)oc1ccccc12`, the result in assay [1] was inactive. In addition, the Activity result in assay [2] is “Dose-dependent effect”; in [4] it was “Dose-dependent effect”; in assay [5], below 14%; in [6], “Dose-dependent effect”. For the same molecule, the IC50 in [2] worked out at 10.4 µM. The outcome in [3] was Active. Also, in assay [7], the Ratio IC50 came out at 0.95.

Take `COC(=O)c1c(-c2cccc(Cl)c2)cn2c1c(=O)oc1ccccc12`: the outcome in [1] and in [6] was inactive. The Activity entry in assay [2] was “Dose-dependent effect”; in [8] it was 90%; in assay [4] it was “Dose-dependent effect”; in assay [5], below 14%; in assay [9], 83%. Also, the IC50 in assay [2] amounted to 8.4 µM. In addition, the outcome in assay [3] was Active. The Ratio IC50 in assay [7] worked out at 1.18.

On to `CCOC(=O)c1c(-c2cc(OC)c(OC)c(OC)c2)cn2c1c(=O)oc1ccccc12`, for which the result in assay [1] and in assay [6] was inactive. Besides, the Activity entry in [2] is “Dose-dependent effect”; in assay [8], 92%; in [4], “Dose-dependent effect”; in [11], 83%; in assay [5] it was below 14%. In addition, the IC50 in assay [2] is 4.8 µM. The result in [3] and in [10] was Active. Moreover, the Ratio IC50 in [7] stood at 2.06.

For the molecule `Cc1c(C)c2c(c(C)c1O)CCC(C)(C(=O)O)O2` (stereo unspecified) [TROLOX], the half-inhibitory concentration (IC50) in assay [2] was 9.9 µM; in [12], 36.4 µM.
